The text below walks through data of US9856268B2, “Lactam kinase inhibitors” (G1 Therapeutics, Inc., priority 2012, dated 2018).

A value given as a limit tells only on which side of the number the result lay.

In assay [1] the target is T1, Aurora -A (Homo sapiens, UniProt O14965).
T1 sequence (O14965 1-403): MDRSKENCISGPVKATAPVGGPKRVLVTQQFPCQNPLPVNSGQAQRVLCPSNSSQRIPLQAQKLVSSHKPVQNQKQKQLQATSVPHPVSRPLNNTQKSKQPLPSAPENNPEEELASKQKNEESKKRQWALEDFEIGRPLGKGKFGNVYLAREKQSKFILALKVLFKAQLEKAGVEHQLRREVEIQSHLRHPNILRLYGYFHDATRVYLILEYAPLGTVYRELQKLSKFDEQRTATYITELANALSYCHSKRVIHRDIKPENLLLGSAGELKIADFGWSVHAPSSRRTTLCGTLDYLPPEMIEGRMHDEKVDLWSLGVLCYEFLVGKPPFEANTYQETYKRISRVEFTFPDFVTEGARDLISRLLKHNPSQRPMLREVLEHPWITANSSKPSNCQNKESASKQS
In words: Kinase electrophoretic mobility shift assay, Aurora -A. In kind it is biochemical. The note with it: compounds tested at 10 μM, average of n = 2, ATP at apparent Km; read-out: Aurora -A activity (percent inhibition). On the procedure: (§1) Kinase activity is measured in vitro using electrophoretic mobility shift assay. The kinase reactions are assembled in 384 well plates in total volume of 25 μL. The reactions comprise: purified recombinant kinase enzyme, test compound, ATP (at apparent Km for each kinase), and fluorescently labeled peptide substrate. The reaction buffer composed of: 100 mM HEPES, pH7.5; 5 mM MgCl2; 1 mM DTT; 0.1% bovine serum albumin; 0.01% Triton X-100, and 1% DMSO (from compound). The reactions were incubated at room temperature for indicated time and quenched by addition of 45 μL of termination buffer (100 mM HEPES pH7.5; 0.01% Triton X-100; 30 mM EDTA). Substrate and product peptides in each sample were electrophoretically separated and detected using 12 channel LabChip3000® microfluidic capillary electrophoresis instrument (Caliper Life Sciences). The change in the relative fluorescence intensities of substrate and product peaks (reflecting enzyme activity) was measured. Capillary electrophoregramms were analyzed using HTS Well Analyzer software (Caliper Life Sciences). The kinase activity in each sample was determined as “product to sum” ratio (PSR):P/(S+P), where P is the peak height of the product peptide and S is the peak height of the substrate peptide. Negative control samples (0%-inhibition in the absence of inhibitor) and positive control samples (100%-inhibition, in the presence of 20 mM EDTA) were assembled in replicates of four and were used to calculate %-inhibition values for each compound at each concentration. Percent inhibition (Pinh) was determined using following equation: Pinh=(PSR0%−PSRinh)/(PSR0%−PSR100%)*100, where PSRinh is the product-sum ratio in the presence of inhibitor, PSR0% is the average product-sum ration in the absence of inhibitor and PSR100% is the average product-sum ratio in 100%-inhibition control samples. The IC50 values of reference inhibitors were determined by fitting the inhibition curves by a 4 parameter sigmoid dose-response model using XLfit 4 software (IDBS).

In assay [2] the target is T2, DYRK3 (Homo sapiens, UniProt O43781).
T2 sequence (O43781 1-588): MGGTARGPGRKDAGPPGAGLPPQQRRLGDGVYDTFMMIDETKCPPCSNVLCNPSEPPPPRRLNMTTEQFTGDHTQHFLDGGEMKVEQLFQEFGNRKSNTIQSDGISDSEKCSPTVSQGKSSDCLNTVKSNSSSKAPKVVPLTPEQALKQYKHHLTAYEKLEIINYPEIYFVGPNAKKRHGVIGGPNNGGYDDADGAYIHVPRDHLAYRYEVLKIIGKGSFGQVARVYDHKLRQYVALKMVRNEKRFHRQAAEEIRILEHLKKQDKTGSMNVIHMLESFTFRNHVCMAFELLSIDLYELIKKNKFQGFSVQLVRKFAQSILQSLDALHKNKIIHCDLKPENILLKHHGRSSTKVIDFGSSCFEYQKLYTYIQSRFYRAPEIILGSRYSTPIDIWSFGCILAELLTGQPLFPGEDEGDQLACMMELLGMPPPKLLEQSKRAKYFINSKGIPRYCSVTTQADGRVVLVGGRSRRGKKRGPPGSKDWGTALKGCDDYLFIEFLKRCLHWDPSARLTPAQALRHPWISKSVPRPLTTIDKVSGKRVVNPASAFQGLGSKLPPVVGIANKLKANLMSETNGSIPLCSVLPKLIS
Nature of the assay: Kinase electrophoretic mobility shift assay, DYRK3. In kind it is biochemical. The note with it: compounds tested at 10 μM, average of n = 2, ATP at apparent Km; read-out: DYRK3 activity (percent inhibition). How it is done: as §1

Assay [3] concerns the target FMS (Homo sapiens, UniProt P07333). Nature of the assay: Kinase electrophoretic mobility shift assay, FMS. In kind it is biochemical. The note with it: compounds tested at 10 μM, average of n = 2, ATP at apparent Km; read-out: FMS activity (percent inhibition). On the procedure:
as §1

Assay [4] deals with GSK-3 beta (Homo sapiens, UniProt P49841). In words: Kinase electrophoretic mobility shift assay, GSK-3 beta. In kind it is biochemical. The note with it: compounds tested at 10 μM, average of n = 2, ATP at apparent Km; read-out: GSK-3 beta activity (percent inhibition). On the procedure:
as §1

In assay [5] the target is T3, HIPK4 (Homo sapiens, UniProt Q8NE63).
T3 sequence (Q8NE63 1-616): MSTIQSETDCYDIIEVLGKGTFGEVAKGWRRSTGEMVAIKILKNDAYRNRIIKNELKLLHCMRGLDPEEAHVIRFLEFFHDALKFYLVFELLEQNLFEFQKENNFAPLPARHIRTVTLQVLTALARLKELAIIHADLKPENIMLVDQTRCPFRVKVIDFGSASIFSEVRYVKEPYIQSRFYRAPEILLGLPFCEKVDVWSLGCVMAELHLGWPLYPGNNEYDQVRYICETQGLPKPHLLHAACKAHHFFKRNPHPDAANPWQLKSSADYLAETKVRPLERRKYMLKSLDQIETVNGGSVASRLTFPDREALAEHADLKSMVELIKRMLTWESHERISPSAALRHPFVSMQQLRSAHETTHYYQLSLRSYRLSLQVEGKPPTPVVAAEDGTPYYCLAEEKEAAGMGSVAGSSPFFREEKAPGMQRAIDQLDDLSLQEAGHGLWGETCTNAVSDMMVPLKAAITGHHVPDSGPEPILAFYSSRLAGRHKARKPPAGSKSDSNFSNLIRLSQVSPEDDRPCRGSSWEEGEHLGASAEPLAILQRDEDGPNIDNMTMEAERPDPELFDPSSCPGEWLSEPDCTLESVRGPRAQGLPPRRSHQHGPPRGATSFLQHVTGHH
Nature of the assay: Kinase electrophoretic mobility shift assay, HIPK4. Format: biochemical. The note with it: compounds tested at 10 μM, average of n = 2, ATP at apparent Km; read-out: HIPK4 activity (percent inhibition). On the procedure: as §1

In assay [6] the target is JNK2 (Homo sapiens, UniProt P45984). In words: Kinase electrophoretic mobility shift assay, JNK2. In kind it is biochemical. The note with it: compounds tested at 10 μM, average of n = 2, ATP at apparent Km; read-out: JNK2 activity (percent inhibition). On the procedure:
as §1

The target of assay [7] is MAPK3 (Homo sapiens, UniProt P27361). In words: Kinase electrophoretic mobility shift assay, MAPK3. Format: biochemical. The note with it: compounds tested at 10 μM, average of n = 2, ATP at apparent Km; read-out: MAPK3 activity (percent inhibition). On the procedure:
as §1

In assay [8] the target is MNK2 (Homo sapiens, UniProt Q9HBH9). In words: Kinase electrophoretic mobility shift assay, MNK2. In kind it is biochemical. The note with it: compounds tested at 10 μM, average of n = 2, ATP at apparent Km; read-out: MNK2 activity (percent inhibition). How it is done: as §1
Chain of MNK2 (Q9HBH9 whole entry, species assumed): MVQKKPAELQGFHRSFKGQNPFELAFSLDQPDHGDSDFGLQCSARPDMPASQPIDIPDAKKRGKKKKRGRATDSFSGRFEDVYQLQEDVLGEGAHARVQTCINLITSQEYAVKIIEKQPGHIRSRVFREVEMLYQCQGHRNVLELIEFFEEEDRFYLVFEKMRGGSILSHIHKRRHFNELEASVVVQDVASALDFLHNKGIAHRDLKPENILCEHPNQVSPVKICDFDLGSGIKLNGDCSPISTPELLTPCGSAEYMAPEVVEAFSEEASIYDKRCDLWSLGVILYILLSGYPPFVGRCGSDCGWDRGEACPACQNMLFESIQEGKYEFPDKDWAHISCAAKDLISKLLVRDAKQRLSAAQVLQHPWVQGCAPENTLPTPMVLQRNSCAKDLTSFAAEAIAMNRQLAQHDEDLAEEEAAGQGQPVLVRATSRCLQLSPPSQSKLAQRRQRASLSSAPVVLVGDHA
Assay [9] addresses P38 beta (Homo sapiens, UniProt Q15759). In words: Kinase electrophoretic mobility shift assay, P38 beta. In kind it is biochemical. The note with it: compounds tested at 10 μM, average of n = 2, ATP at apparent Km; read-out: P38 beta activity (percent inhibition). On the procedure:
as §1

The test system of assay [10] is treatment-refractory metastatic colorectal cancer. The note with it: single agent, patients with treatment-refractory metastatic colorectal cancer, phase III; cited from earlier work.

Chain of GSK-3 beta (P49841 whole entry, species assumed): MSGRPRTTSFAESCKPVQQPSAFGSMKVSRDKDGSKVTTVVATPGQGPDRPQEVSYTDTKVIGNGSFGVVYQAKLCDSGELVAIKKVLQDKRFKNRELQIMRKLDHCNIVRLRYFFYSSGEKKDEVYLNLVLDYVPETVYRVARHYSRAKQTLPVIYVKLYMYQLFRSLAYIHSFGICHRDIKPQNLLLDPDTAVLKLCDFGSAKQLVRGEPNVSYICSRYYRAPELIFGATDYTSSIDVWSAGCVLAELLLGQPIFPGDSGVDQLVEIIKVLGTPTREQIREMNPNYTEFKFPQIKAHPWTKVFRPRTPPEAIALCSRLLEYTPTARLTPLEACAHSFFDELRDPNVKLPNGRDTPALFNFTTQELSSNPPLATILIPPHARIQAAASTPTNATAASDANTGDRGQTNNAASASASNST
Chain of JNK2 (P45984 whole entry, species assumed): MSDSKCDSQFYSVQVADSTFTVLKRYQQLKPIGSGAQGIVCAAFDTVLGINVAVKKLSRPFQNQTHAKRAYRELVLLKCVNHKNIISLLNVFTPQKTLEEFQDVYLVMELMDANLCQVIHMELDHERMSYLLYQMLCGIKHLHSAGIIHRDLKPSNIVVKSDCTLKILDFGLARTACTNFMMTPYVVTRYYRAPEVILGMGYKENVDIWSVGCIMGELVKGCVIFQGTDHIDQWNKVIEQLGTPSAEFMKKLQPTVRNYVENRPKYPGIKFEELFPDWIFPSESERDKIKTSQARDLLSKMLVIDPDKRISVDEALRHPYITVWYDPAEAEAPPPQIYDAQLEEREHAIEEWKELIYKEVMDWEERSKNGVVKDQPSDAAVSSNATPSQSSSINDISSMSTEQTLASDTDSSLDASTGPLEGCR
Chain of FMS (P07333 20-972, species assumed): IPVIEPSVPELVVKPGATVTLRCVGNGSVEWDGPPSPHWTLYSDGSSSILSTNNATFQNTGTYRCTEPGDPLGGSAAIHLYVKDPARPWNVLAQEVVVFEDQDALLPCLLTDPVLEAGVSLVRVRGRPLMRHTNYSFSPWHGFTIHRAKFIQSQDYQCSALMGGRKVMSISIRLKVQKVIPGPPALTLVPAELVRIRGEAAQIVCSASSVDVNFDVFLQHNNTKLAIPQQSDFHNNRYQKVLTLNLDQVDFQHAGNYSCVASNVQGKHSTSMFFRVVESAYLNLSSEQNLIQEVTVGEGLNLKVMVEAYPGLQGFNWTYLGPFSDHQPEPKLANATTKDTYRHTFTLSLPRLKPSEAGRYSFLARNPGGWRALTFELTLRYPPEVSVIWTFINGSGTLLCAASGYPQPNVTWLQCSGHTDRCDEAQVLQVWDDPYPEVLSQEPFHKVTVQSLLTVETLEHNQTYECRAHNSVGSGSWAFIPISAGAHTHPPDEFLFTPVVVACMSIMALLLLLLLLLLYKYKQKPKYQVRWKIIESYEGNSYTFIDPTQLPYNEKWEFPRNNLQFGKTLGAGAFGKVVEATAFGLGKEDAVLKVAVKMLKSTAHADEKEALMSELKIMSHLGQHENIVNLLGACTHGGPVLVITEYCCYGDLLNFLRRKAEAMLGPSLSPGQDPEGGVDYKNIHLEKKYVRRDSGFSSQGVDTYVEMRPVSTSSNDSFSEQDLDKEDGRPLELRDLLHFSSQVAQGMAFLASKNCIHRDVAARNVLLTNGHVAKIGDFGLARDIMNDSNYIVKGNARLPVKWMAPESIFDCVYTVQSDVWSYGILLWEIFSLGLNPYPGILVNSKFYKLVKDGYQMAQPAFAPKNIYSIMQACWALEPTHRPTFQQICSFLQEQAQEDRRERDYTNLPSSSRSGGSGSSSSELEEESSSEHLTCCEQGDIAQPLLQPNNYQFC
Chain of MAPK3 (P27361 whole entry): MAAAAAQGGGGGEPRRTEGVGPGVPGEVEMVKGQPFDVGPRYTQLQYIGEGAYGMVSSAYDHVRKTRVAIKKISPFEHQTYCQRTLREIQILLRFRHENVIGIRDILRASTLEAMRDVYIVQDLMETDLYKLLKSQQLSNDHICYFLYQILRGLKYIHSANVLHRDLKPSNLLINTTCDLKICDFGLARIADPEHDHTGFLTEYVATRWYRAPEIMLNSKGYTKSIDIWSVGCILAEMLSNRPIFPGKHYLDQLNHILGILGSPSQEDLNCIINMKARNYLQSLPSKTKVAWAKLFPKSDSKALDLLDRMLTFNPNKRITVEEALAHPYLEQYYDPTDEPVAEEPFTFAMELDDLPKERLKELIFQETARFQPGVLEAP
Chain of P38 beta (Q15759 whole entry): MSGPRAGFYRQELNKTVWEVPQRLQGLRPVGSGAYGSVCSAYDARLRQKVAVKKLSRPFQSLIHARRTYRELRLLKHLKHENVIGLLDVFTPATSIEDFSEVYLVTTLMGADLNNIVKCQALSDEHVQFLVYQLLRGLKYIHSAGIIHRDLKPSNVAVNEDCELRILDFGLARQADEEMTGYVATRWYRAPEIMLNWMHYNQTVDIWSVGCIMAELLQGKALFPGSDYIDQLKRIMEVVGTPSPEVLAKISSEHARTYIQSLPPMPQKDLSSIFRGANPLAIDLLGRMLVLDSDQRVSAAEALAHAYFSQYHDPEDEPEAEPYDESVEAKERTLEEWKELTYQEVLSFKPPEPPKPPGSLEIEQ

As usually defined, the inhibition is the share of the control response that was lost under treatment. In the case of `Cc1ccccc1-c1c2n(c3nc(Nc4ccc(N5CCOCC5)cc4)ncc13)CCNC2=O` [Compd 1], the inhibition at 10 µM in assay [1], in assay [2], in [3], in assay [4], in [5] and in assay [6] was less than 50% in each case. Besides, the inhibition at 10 µM in assay [7], in assay [8] and in [9] was less than 50% each time.

In the case of `Cc1ccccc1-c1c2n(c3nc(N[C@H]4CC[C@H](O)CC4)ncc13)CCNC2=O` [Compd 2], the inhibition at 10 µM is less than 50% in [1]; less than 50% in assay [2]; less than 50% in assay [3]; less than 50% in assay [4]; less than 50% in [5]; 71 to 90% in [6]. For the same compound, the inhibition at 10 µM was 50 to 70% in assay [7], less than 50% in assay [8] and less than 50% in assay [9].

Turning to `O=C1NCCn2c1cc1cnc(N[C@H]3CC[C@H](O)CC3)nc12` [Compd 3], the inhibition at 10 µM in assay [1] is less than 50%; in assay [2], 71 to 90%; in assay [3], less than 50%; in assay [4] it was 71 to 90%; in assay [5], 71 to 90%; in [6], greater than 90%. In addition, the inhibition at 10 µM in assay [7] is 71 to 90%; in assay [8], less than 50%; in assay [9] it was less than 50%.

With `CC1(C)CNC(=O)c2cc3cnc(N[C@H]4CC[C@H](O)CC4)nc3n21` [Compd 4], the inhibition at 10 µM was 50 to 70% in assay [1]; 71 to 90% in [2]; greater than 90% in [3]; greater than 90% in [4]; greater than 90% in [5]; greater than 90% in assay [6]. Also, the inhibition at 10 µM in [7] fell in the range of 71 to 90%; in assay [8], 71 to 90%; in [9], 50 to 70%.

As to `CCC1Cn2c(cc3cnc(N[C@H]4CC[C@H](O)CC4)nc32)C(=O)N1` (some centres unmarked) [Compd 5], the inhibition at 10 µM in assay [1] was less than 50%; in [2] it was 71 to 90%; in assay [3], 71 to 90%; in assay [4], greater than 90%; in assay [5], greater than 90%; in assay [6], greater than 90%. Also, the inhibition at 10 µM in [7] fell in the range of 71 to 90%; in [8], 50 to 70%; in assay [9], 50 to 70%.

Take `O=C1NC2(CCCC2)Cn2c1cc1cnc(N[C@H]3CC[C@H](O)CC3)nc12` [Compd 6]: the inhibition at 10 µM in assay [1] is 50 to 70%; in [2] it was 71 to 90%; in [3], 50 to 70%; in assay [4] it was greater than 90%; in assay [5] it was greater than 90%; in assay [6] it was greater than 90%. In addition, the inhibition at 10 µM is greater than 90% in assay [7], 50 to 70% in assay [8] and 50 to 70% in assay [9].

As for `O=C1NCC2(CCCC2)n2c1cc1cnc(N[C@H]3CC[C@H](O)CC3)nc12` [Compd 7], the inhibition at 10 µM was greater than 90% in [1]; greater than 90% in [2]; 71 to 90% in [3]; greater than 90% in assay [4]; greater than 90% in [5]; greater than 90% in assay [6]. Besides, the inhibition at 10 µM in assay [7] is greater than 90%; in [8] it was 71 to 90%; in assay [9] it was 71 to 90%.

In the case of `CNC(=O)c1cc(Oc2ccc(NC(=O)Nc3ccc(Cl)c(C(F)(F)F)c3)c(F)c2)ccn1` [regorafenib], in assay [10], the disease progression result is listed as “delayed disease progression” and the overall survival entry was “significantly improved overall survival”.
